# Experimental data from US7674819B2 (Warner-Lambert Company LLC, priority 2005, dated 2010).
# Where a chain is given by its changes, count along the chain named. Where two headings read alike, the source gives them in different places.
# Columns and labels:
# hAR = target: T1, hAR (Homo sapiens, UniProt P10275); assay: Competitive binding of 3H-DHT to baculovirus/Sf9 generated hAR extracts; conditions: one hour at 4° C., mean of multiple tests
# T1 sequence (P10275 1-920): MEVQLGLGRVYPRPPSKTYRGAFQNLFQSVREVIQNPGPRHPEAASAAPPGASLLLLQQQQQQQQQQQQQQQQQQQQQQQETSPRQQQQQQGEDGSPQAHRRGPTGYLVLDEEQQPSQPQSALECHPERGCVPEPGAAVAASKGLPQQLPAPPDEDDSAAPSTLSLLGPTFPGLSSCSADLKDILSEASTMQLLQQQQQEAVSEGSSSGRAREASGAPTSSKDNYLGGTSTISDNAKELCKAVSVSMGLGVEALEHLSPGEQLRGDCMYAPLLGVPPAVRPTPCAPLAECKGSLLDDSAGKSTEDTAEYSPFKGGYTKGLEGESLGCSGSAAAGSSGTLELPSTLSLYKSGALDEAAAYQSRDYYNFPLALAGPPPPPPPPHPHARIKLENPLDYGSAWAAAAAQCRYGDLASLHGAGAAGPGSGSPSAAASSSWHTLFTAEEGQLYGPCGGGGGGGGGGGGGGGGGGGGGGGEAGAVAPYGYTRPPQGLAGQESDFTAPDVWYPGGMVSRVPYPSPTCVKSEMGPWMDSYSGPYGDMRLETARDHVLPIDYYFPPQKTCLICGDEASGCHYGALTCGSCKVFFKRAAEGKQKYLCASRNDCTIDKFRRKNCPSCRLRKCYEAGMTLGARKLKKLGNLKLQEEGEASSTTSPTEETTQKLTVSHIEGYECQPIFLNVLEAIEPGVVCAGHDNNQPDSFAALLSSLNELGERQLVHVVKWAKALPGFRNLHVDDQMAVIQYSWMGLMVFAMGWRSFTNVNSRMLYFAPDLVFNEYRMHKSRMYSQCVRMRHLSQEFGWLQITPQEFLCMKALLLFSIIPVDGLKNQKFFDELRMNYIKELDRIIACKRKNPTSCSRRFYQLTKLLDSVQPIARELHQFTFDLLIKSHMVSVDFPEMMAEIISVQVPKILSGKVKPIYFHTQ
# Summary of the method: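 Baculovirus/Sf9-expressed hAR extract incubated with test compound, hydroxylapatite and 1 nM 3H-DHT tracer for 1 h at 4° C, then washed free of unbound tracer. Affinity given as concentration inhibiting half of maximal 3H-DHT binding.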
# androgen receptor = target: T2, androgen receptor (Homo sapiens, UniProt P10275); assay: AR Antagonist Cell Assay (MDA-MB453-MMTV clone 54-19, luciferase reporter); assay type: cell-based; conditions: inhibition of induction by DHT (final concentration at 100 μM), 17 hr, compound 0.32-1000 nM, mean of multiple tests
# T2 sequence (P10275 1-920 Q868H): T1 sequence (P10275 1-920) with Q868H
# Description: The compounds ability to antagonize the effects of androgen on the androgen receptor were determined in a whole cell assay as described immediately below.
# Experimental Procedure for AR Antagonist Cell Assay
# This cell line is a stable transfected cell line with MDA-MB453 cell background (a human breast tumor cell line expressing androgen receptor). A MMTV minimal promoter containing ARE was first cloned in front of a firefly luciferase reporter gene. Then the cascade was cloned into transfection vector pUV120puro. […] Puromycin resistant stable cell line was selected.
# Cell Culture Media and Reagents:
# Plating medium: DMEM (phenol red free), 10% charcoal treated HyClone serum, 1% L-glutamine
# Assay medium: DMEM (phenol red free), 1% charcoal treated HyClone serum, 1% L-glutamine, 1% penicillin/streptomycin
# Cells are maintained in culture medium, splitting cells when they reach 80-90% confluence
# To test compounds, 10,000 cells/well are plated to opaque 96 cell culture plate in 100 ul/well plating medium, culture for overnight at 37° C. in cell culture incubator
# Add 10 ul/well freshly prepared DHT (final concentration at […]) to each well, incubate at 37° C. for 17 hr (overnight)
# Add 50 ul/well 3× luciferase buffer, incubate at room temperature for 5 minutes, then count on Luminometer
# The results are reported as the mean of multiple tests described below (the numbers of tests are indicated in the footnote). N.D. denotes that the compound was not tested.
# [1] = IC50, concentration at which one half of maximum binding of 1 nM 3H-DHT to hAR is inhibited
# [2] = concentration at which one half of maximum binding of 1 nM 3H-DHT to hAR is inhibited, read-out: IC50
SMILES,IC50 (hAR; [1]) [nM],IC50 (androgen receptor) [nM],IC50 (androgen receptor; read-out: IC50) [nM],IC50 (hAR; [2]) [nM]
"CC1(C)CN(Cc2ccccc2O)C(=O)C1Oc1ccc(C#N)c(C(F)(F)F)c1 (stereo not shown) [Example 11, 4-[1-(2-Hydroxy-benzyl)-4,4-dimethyl-2-oxo-pyrrolidin-3-yloxy]-2-trifluoromethyl-benzonitrile]",17,14,,
"COc1cccc(CN2CC(C)(C)C(Oc3ccc(C#N)c(C(F)(F)F)c3)C2=O)c1 (stereo not shown) [Example 12, 4-[1-(3-Methoxy-benzyl)-4,4-dimethyl-2-oxo-pyrrolidin-3-yloxy]-2-trifluoromethyl-benzonitrile]",111,310,,
"CC1(C)CN(Cc2cccc(O)c2)C(=O)C1Oc1ccc(C#N)c(C(F)(F)F)c1 (stereo not shown) [Example 13, 4-[1-(3-Hydroxy-benzyl)-4,4-dimethyl-2-oxo-pyrrolidin-3-yloxy]-2-trifluoromethyl-benzonitrile]",11,313,,
"CC1(C)CN(Cc2ccccc2F)C(=O)C1Oc1ccc(C#N)c(C(F)(F)F)c1 (stereo not shown) [Example 15, 4-[1-(2-Fluoro-benzyl)-4,4-dimethyl-2-oxo-pyrrolidin-3-yloxy]-2-trifluoromethyl-benzonitrile]",48,71,,
"CC1(C)CN(Cc2ccccc2F)C(=O)C1Oc1ccc(C#N)c(C(F)(F)F)c1 (stereo not shown) [Example 16, 4-[1-(2-Fluoro-benzyl)-4,4-dimethyl-2-oxo-pyrrolidin-3-yloxy]-2-trifluoromethyl-benzonitrile]",26,43,,
"CC1(C)CN(Cc2ccc(F)cc2)C(=O)C1Oc1ccc(C#N)c(C(F)(F)F)c1 (stereo not shown) [Example 17, 4-[1-(4-Fluoro-benzyl)-4,4-dimethyl-2-oxo-pyrrolidin-3-yloxy]-2-trifluoromethyl-benzonitrile]",144,214,,
"CC1(C)CN(Cc2cc(O)cc(O)c2)C(=O)C1Oc1ccc(C#N)c(C(F)(F)F)c1 (stereo not shown) [Example 18, 4-[1-(3,5-Dihydroxy-benzyl)-4,4-dimethyl-2-oxo-pyrrolidin-3-yloxy]-2-trifluoromethyl-benzonitrile]",45,8,,
"CCCCN1CC(C)(C)C(Oc2ccc(C#N)c(C(F)(F)F)c2)C1=O (stereo not shown) [Example 19, 4-(1-Butyl-4,4-dimethyl-2-oxo-pyrrolidin-3-yloxy)-2-trifluoromethyl-benzonitrile]",152,19,,
"CC(C)OC(=O)c1ccc(CN2CC(C)(C)C(Oc3ccc(C#N)c(C(F)(F)F)c3)C2=O)o1 (stereo not shown) [Example 27, 5-[3-(4-Cyano-3-trifluoromethyl-phenoxy)-4,4-dimethyl-2-oxo-pyrrolidin-1-ylmethyl]-furan-2-carboxylic acid isopropyl ester]",44,,368,
"COC(=O)c1ccc(CN2CC(C)(C)C(Oc3ccc(C#N)c(C(F)(F)F)c3)C2=O)o1 (stereo not shown) [Example 28, 5-[3-(4-Cyano-3-trifluoromethyl-phenoxy)-4,4-dimethyl-2-oxo-pyrrolidin-1-ylmethyl]-furan-2-carboxylic acid methyl ester]",,,317,310
"CCOC(=O)c1ccc(CN2CC(C)(C)C(Oc3ccc(C#N)c(C(F)(F)F)c3)C2=O)o1 (stereo not shown) [Example 29, 5-[3-(4-Cyano-3-trifluoromethyl-phenoxy)-4,4-dimethyl-2-oxo-pyrrolidin-1-ylmethyl]-furan-2-carboxylic acid ethyl ester]",119,124,,
"COC(=O)c1csc(CN2CC(C)(C)C(Oc3ccc(C#N)c(C(F)(F)F)c3)C2=O)n1 (stereo not shown) [Example 30, 2-[3-(4-Cyano-3-trifluoromethyl-phenoxy)-4,4-dimethyl-2-oxo-pyrrolidin-1-ylmethyl]-thiazole-4-carboxylic acid methyl ester]",215,813,,
"CC1(C)CN(Cc2ccncc2)C(=O)C1Oc1ccc(C#N)c(C(F)(F)F)c1 (stereo not shown) [Example 35, 4-(4,4-Dimethyl-2-oxo-1-pyridin-4-ylmethyl-pyrrolidin-3-yloxy)-2-trifluoromethyl-benzonitrile]",128,486,,
"COC(=O)c1ccc(CN2CC(C)(C)C(Oc3ccc(C#N)c(C(F)(F)F)c3)C2=O)cc1 (stereo not shown) [Example 37, 4-[3-(4-Cyano-3-trifluoromethyl-phenoxy)-4,4-dimethyl-2-oxo-pyrrolidin-1-ylmethyl]-benzoic acid methyl ester]",47,84,,
"CC1(C)CN(Cc2ccc3nsnc3c2)C(=O)C1Oc1ccc(C#N)c(C(F)(F)F)c1 (stereo not shown) [Example 39, 4-(1-Benzo[1,2,5]thiadiazol-5-ylmethyl-4,4-dimethyl-2-oxo-pyrrolidin-3-yloxy)-2-trifluoromethyl-benzonitrile]",64,74,,
"CC1(C)CN(Cc2nc3ccccc3s2)C(=O)C1Oc1ccc(C#N)c(C(F)(F)F)c1 (stereo not shown) [Example 40, 4-(1-Benzothiazol-2-ylmethyl-4,4-dimethyl-2-oxo-pyrrolidin-3-yloxy)-2-trifluoromethyl-benzonitrile]",43,50,,
"CC1(C)CN(Cc2cccc3nsnc23)C(=O)C1Oc1ccc(C#N)c(C(F)(F)F)c1 (stereo not shown) [Example 41, 4-(1-Benzo[1,2,5]thiadiazol-4-ylmethyl-4,4-dimethyl-2-oxo-pyrrolidin-3-yloxy)-2-trifluoromethyl-benzonitrile]",,,72,107
"CC1(C)CN(Cc2cccc(OC(F)F)c2)C(=O)C1Oc1ccc(C#N)c(C(F)(F)F)c1 (stereo not shown) [Example 42, 4-[1-(3-Difluoromethoxy-benzyl)-4,4-dimethyl-2-oxo-pyrrolidin-3-yloxy]-2-trifluoromethyl-benzonitrile]",,,219,120
CC1(C)CN(Cc2cccc(C#N)c2)C(=O)C1Oc1ccc(C#N)c(C(F)(F)F)c1 (stereo not shown) [Example 45],50,50,,
"CC1(C)CN(Cc2noc(-c3ccccc3)n2)C(=O)C1Oc1ccc(C#N)c(C(F)(F)F)c1 (stereo not shown) [Example 46, 4-[4,4-Dimethyl-2-oxo-1-(5-phenyl-[1,2,4]oxadiazol-3-ylmethyl)-pyrrolidin-3-yloxy]-2-trifluoromethyl-benzonitrile]",90,43,,
